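Step 1: Grow cells in 96-well plates. Step 2: Expose to compound for 48 hours at 5 concentrations. Step 3: Interpolate endpoints linearly; if unreached, use highest concentration. TGI denotes the concentration required for complete inhibition of growth.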
What was measured:
Assay in all cases: DTP human tumour cell line panel, 48 h
A498 renal = test system: A498 renal
COLO 205 colon = test system: COLO 205 colon
HL-60(TB) leukemia = test system: HL-60(TB) leukemia
HOP-62 NSCLC = test system: HOP-62 NSCLC
HOP-92 NSCLC = test system: HOP-92 NSCLC
HT29 colon = test system: HT29 colon
IGROV1 ovarian = test system: IGROV1 ovarian
MALME-3M melanoma = test system: MALME-3M melanoma
MOLT-4 leukemia = test system: MOLT-4 leukemia
OVCAR-8 ovarian = test system: OVCAR-8 ovarian
SF-268 CNS = test system: SF-268 CNS
SK-MEL-2 melanoma = test system: SK-MEL-2 melanoma
SNB-19 CNS = test system: SNB-19 CNS
U251 CNS = test system: U251 CNS
UACC-62 melanoma = test system: UACC-62 melanoma
OVCAR-3 ovarian = test system: OVCAR-3 ovarian
MCF7 breast = test system: MCF7 breast
MDA-N = test system: MDA-N
T-47D breast = test system: T-47D breast
BT-549 breast = test system: BT-549 breast

SMILES	TGI (A498 renal) [µM]	TGI (COLO 205 colon) [µM]	TGI (HL-60(TB) leukemia) [µM]	TGI (HOP-62 NSCLC) [µM]	TGI (HOP-92 NSCLC) [µM]	TGI (HT29 colon) [µM]	TGI (IGROV1 ovarian) [µM]	TGI (MALME-3M melanoma) [µM]	TGI (MOLT-4 leukemia) [µM]	TGI (OVCAR-8 ovarian) [µM]	TGI (SF-268 CNS) [µM]	TGI (SK-MEL-2 melanoma) [µM]	TGI (SNB-19 CNS) [µM]	TGI (U251 CNS) [µM]	TGI (UACC-62 melanoma) [µM]	TGI (OVCAR-3 ovarian) [µM]	TGI (MCF7 breast) [µM]	TGI (MDA-N) [µM]	TGI (T-47D breast) [µM]	TGI (BT-549 breast) [µM]
COC(=O)N/N=C(/Cc1occc(=O)c1O)C(=O)Nc1ccc([N+](=O)[O-])cc1[N+](=O)[O-]	> 100	> 100	> 100	> 100	> 100	> 100	> 100	> 100	> 100	> 100	> 100	> 100	> 100	> 100	> 100	–	–	–	–	–
COC(=O)C(=O)C(C(=O)OC)C(=O)C(=O)Nc1cc(Cl)c(Cl)cc1Cl (stereo unspecified)	> 100	> 100	> 100	> 100	> 100	> 100	> 100	> 100	> 100	> 100	> 100	> 100	> 100	> 100	> 100	> 100	–	–	–	–
Cn1nc2ccccc2cc1=O	> 100	> 100	–	> 100	> 100	> 100	> 100	> 100	–	> 100	> 100	> 100	> 100	> 100	> 100	> 100	–	–	–	–
CC1=C2CN(C(=O)OCC(C)C)CCC2C2=C(C(=O)c3ccccc3C2=O)C1C (stereo unspecified)	–	> 10	> 10	> 10	> 10	> 10	> 10	> 10	> 10	> 10	> 10	–	–	–	> 10	–	> 10	> 10	> 10	–
Cn1c(=O)n2n(c1=O)[C@@H](c1ccccc1)[C@H]2c1ccccc1	> 100	> 100	> 100	> 100	> 100	> 100	> 100	> 100	> 100	> 100	–	> 100	> 100	> 100	> 100	> 100	> 100	–	–	> 100
COC1=CC(=O)C2C(C1=O)C(c1ccc(OC)c(OC)c1)[C@H]2C (stereo partly specified)	> 100	36.9	46.7	> 100	36.6	> 100	> 100	35.3	31.3	42.5	> 100	> 100	> 100	> 100	> 100	40.1	–	–	–	–
COc1ccc2c(c1)OC(c1ccccc1O)CC2=O (stereo unspecified)	> 100	–	–	> 100	–	> 100	–	> 100	> 100	> 100	> 100	77.5	> 100	> 100	–	96.8	–	–	–	–
CC(C)(C)C(=O)/C=C/c1cccc(Oc2ccccc2)c1	37.1	–	–	> 100	–	22.1	78	36.2	57.1	27.8	–	27.6	30	23.5	–	–	–	–	–	–
O=C(CC(=O)N1N=C(N(c2ccccc2)c2ccccc2)CC1c1ccccc1)Nc1ccccc1 (stereo unspecified)	–	> 100	> 100	> 100	> 100	> 100	> 100	–	> 100	> 100	> 100	> 100	> 100	> 100	> 100	> 100	> 100	–	> 100	> 100
CC(C)c1cccc(C(C)C)c1NC(=O)CCC(=O)NN	> 100	36.1	> 100	> 100	> 100	> 100	> 100	> 100	> 100	> 100	> 100	–	> 100	> 100	> 100	> 100	–	–	–	–
COCN1C(=O)[C@@H]2CCCN2C(=O)c2ccc([N+](=O)[O-])cc21	> 100	> 100	> 100	> 100	> 100	> 100	> 100	–	> 100	> 100	> 100	> 100	> 100	> 100	> 100	> 100	> 100	–	> 100	> 100
O=C(Nc1ccc(Cl)cc1)NS(=O)(=O)c1c(-c2ccccc2)oc2ccccc2c1=O	> 100	> 100	> 100	> 100	> 100	> 100	> 100	> 100	> 100	> 100	> 100	> 100	> 100	> 100	13.6	–	–	> 100	> 100	–
CC1(O)Oc2ccc3ccccc3c2C=C1C(N)=O (stereo unspecified)	> 100	> 100	> 100	> 100	> 100	–	> 100	–	> 100	–	> 100	> 100	> 100	> 100	> 100	–	> 100	–	> 100	–
C/C(=N/NC(N)=S)C(CN(C)C)C(C1=C(O)c2ccccc2OC1)c1ccccc1 (stereo unspecified)	> 100	> 100	> 100	> 100	–	> 100	> 100	> 100	> 100	> 100	> 100	> 100	> 100	> 100	> 100	> 100	–	–	–	–
O=C(O)C1=NN(c2ccc(S(=O)(=O)O)cc2)C2(C1)SCC(=O)N2c1nc2ccccc2s1 (stereo unspecified)	> 100	> 100	> 100	> 100	> 100	> 100	> 100	> 100	> 100	> 100	> 100	> 100	> 100	> 100	> 100	> 100	> 100	–	> 100	> 100
O=C1NC2C(CCO)CC=C[C@H]2c2cc3c(cc21)OCO3 (stereo partly specified)	–	> 100	> 100	> 100	–	> 100	> 100	> 100	> 100	> 100	> 100	–	> 100	> 100	> 100	> 100	–	–	–	–
CCO/C=C(\C(=O)OC)S(=O)(=O)c1ccc(C)cc1	–	> 100	> 100	> 100	> 100	> 100	> 100	> 100	> 100	> 100	> 100	> 100	> 100	> 100	> 100	> 100	> 100	> 100	> 100	–
CCCc1c(C(=O)OCC)[nH]c(C(=O)CCC(=O)c2[nH]c(C(=O)OCC)c(CCC)c2C(=O)OCC)c1C(=O)OCC	> 100	> 100	> 100	–	> 100	> 100	> 100	> 100	> 100	> 100	> 100	> 100	> 100	> 100	> 100	> 100	–	–	–	–
O=C(N/N=C(\c1nc2ccc(Cl)cc2[nH]c1=O)C(O)c1ccccc1Cl)c1ccncc1 (stereo unspecified)	> 100	> 100	> 100	–	> 100	> 100	> 100	> 100	> 100	–	> 100	> 100	> 100	–	> 100	> 100	–	–	–	–
CCN(CC)CCCCC1CCN(CC(=O)N2c3cc(Cl)ccc3NC(=O)CC2C)CC1 (stereo unspecified)	> 100	> 100	> 100	> 100	> 100	> 100	> 100	> 100	> 100	–	> 100	–	> 100	> 100	> 100	> 100	–	–	–	–
Fc1ccc2c3c([nH]c2c1)CCNC3	65.9	> 100	> 100	> 100	85.9	> 100	> 100	> 100	> 100	> 100	> 100	–	> 100	> 100	> 100	–	> 100	–	> 100	–
CCOC(=O)Nn1c(C)cc(C(=O)OC)c1C	> 100	> 100	> 100	> 100	–	> 100	> 100	> 100	> 100	> 100	> 100	> 100	> 100	> 100	> 100	> 100	–	–	–	–
CC(C)C1COC(c2ccc3ccccc3c2-c2c(O[Si](C)(C)C(C)(C)C)ccc3ccccc23)=N1 (stereo unspecified)	36.2	33.6	33.1	33.4	26.6	29	35.4	32.9	32	35.3	34.7	30.4	29.2	–	30.9	31.5	–	–	–	–
CN(C)c1nc(=NCc2cccnc2)ss1	–	> 10	> 10	> 10	> 10	> 10	> 10	> 10	> 10	> 10	> 10	–	–	–	> 10	–	–	> 10	> 10	–
N#CCc1nc(-c2cc3c(ccc4ccccc43)oc2=O)cs1	–	> 100	> 100	32.2	44.5	> 100	43.7	> 100	> 100	> 100	> 100	72.4	36.4	38.5	68.4	–	> 100	–	> 100	31.5
CN1N=C2c3ccccc3CC[C@H]2C1c1cccc(O)c1 (stereo partly specified)	> 100	> 100	> 100	> 100	> 100	> 100	> 100	5.01	> 100	> 100	> 100	> 100	> 100	> 100	> 100	> 100	–	–	–	–
O=C(/C=C/c1ccc2c(c1)OCO2)CC(=O)/C=C/c1ccc2c(c1)OCO2	–	> 100	> 100	> 100	–	> 100	68.2	> 100	> 100	–	–	> 100	> 100	> 100	> 100	> 100	> 100	> 100	> 100	–
OC(CC(O)(C(F)(F)F)C(F)(F)F)C(O)c1ccco1 (stereo unspecified)	> 10	> 10	> 10	> 10	–	> 10	> 10	> 10	> 10	> 10	> 10	> 10	> 10	> 10	> 10	> 10	> 10	> 10	> 10	–
C#Cc1cc(CN(CC(=O)OC(C)(C)C)CC(=O)OC(C)(C)C)nc(CN(CC(=O)OC(C)(C)C)CC(=O)OC(C)(C)C)c1	76.1	24.9	9.72	24.1	–	> 100	26.7	20.9	6.33	31.6	44.8	8.24	15.1	27.8	36.5	> 100	–	–	–	–

Source: PubChem BioAssay (NCI)
